Measured values published in US20260217765A1, “NOVEL ANTIMICROBIAL PEPTIDE DESIGNED FROM DUCK-DERIVED ANTIMICROBIAL PEPTIDE ANDUSE THEREOF” (INDUSTRY-ACADEMIC COOPERATION FOUNDATION, CHOSUN UNIVERSITY, priority 2023, published 2026).
Values after ≈ are worked out from the molar mass of the structure shown. Peptide text beside a SMILES is read from it.

Key:
[1] = system: Acinetobacter baumannii_isolate 3 (antibiotic-resistant); type: cell-based, Acinetobacter baumannii; conditions: isolate 3 (antibiotic-resistant)
Description: (§1) To compare the antimicrobial activity of the peptides prepared in <Example 1>, the minimum inhibitory concentration (MIC), […] measured. Here, the minimal inhibitory concentration (MIC) refers to the lowest concentration of a substance that prevents visible bacterial growth.
(§2) Specifically, the bacterial strains listed in Table 2 below were obtained and cultured in media suitable for each strain until the mid-log phase. The cultures were then diluted to a concentration of 2×10^4 cells/100 μL and prepared in microtiter plates (Nunc, USA). Subsequently, serial 2-fold dilutions of the peptides prepared in Example 1 were prepared, and 10 μL of each dilution was added to the wells, and the plates were incubated at 37° C. for 18 hours. Absorbance at 600 nm was measured using a microtiter plate reader (Merck ELISA reader, Germany) to determine the MIC values for each bacterial strain. The parent peptide dCATH was used as a control.

[2] = system: Acinetobacter baumannii_isolate 4 (antibiotic-resistant); type: cell-based, Acinetobacter baumannii; conditions: isolate 4 (antibiotic-resistant)
Description: as §1, §2

[3] = system: Acinetobacter baumannii_isolate 10 (antibiotic-resistant); type: cell-based, Acinetobacter baumannii; conditions: isolate 10 (antibiotic-resistant)
Description: as §1, §2

[4] = system: Acinetobacter baumannii_isolate20 (antibiotic-resistant); type: cell-based, Acinetobacter baumannii; conditions: isolate20 (antibiotic-resistant)
Description: as §1, §2

[5] = system: Acinetobacter baumannii_isolate 23 (antibiotic-resistant); type: cell-based, Acinetobacter baumannii; conditions: isolate 23 (antibiotic-resistant)
Description: as §1, §2

[6] = system: Acinetobacter baumannii_isolate11 (antibiotic-resistant); type: cell-based, Acinetobacter baumannii; conditions: isolate11 (antibiotic-resistant)
Description: as §1, §2

[7] = system: Acinetobacter baumannii_isolate 17 (antibiotic-resistant); type: cell-based, Acinetobacter baumannii; conditions: isolate 17 (antibiotic-resistant)
Description: as §1, §2

[8] = system: Acinetobacter baumannii_isolate 1 (antibiotic-resistant); type: cell-based, Acinetobacter baumannii; conditions: isolate 1 (antibiotic-resistant)
Description: as §1, §2

[9] = system: Acinetobacter baumannii_isolate15 (antibiotic-resistant); type: cell-based, Acinetobacter baumannii; conditions: isolate15 (antibiotic-resistant)
Description: as §1, §2

[10] = system: Acinetobacter baumannii_isolate 9 (antibiotic-resistant); type: cell-based, Acinetobacter baumannii; conditions: isolate 9 (antibiotic-resistant)
Description: as §1, §2

[11] = system: Acinetobacter baumannii_isolate 18 (antibiotic-resistant); type: cell-based, Acinetobacter baumannii; conditions: isolate 18 (antibiotic-resistant)
Description: as §1, §2

[12] = system: Acinetobacter baumannii_isolate 7 (antibiotic-resistant); type: cell-based, Acinetobacter baumannii; conditions: isolate 7 (antibiotic-resistant)
Description: as §1, §2

[13] = system: Acinetobacter baumannii_isolate 26 (antibiotic-resistant); type: cell-based, Acinetobacter baumannii; conditions: isolate 26 (antibiotic-resistant)
Description: as §1, §2

[14] = system: Acinetobacter baumannii_isolate 13 (antibiotic-resistant); type: cell-based, Acinetobacter baumannii; conditions: isolate 13 (antibiotic-resistant)
Description: as §1, §2

[15] = system: Acinetobacter baumannii_isolate 5 (antibiotic-resistant); type: cell-based, Acinetobacter baumannii; conditions: isolate 5 (antibiotic-resistant)
Description: as §1, §2

[16] = system: Acinetobacter baumannii_isolate 2 (antibiotic-resistant); type: cell-based, Acinetobacter baumannii; conditions: isolate 2 (antibiotic-resistant)
Description: as §1, §2

[17] = system: Acinetobacter baumannii_isolate 12 (antibiotic-resistant); type: cell-based, Acinetobacter baumannii; conditions: isolate 12 (antibiotic-resistant)
Description: as §1, §2

[18] = system: Acinetobacter baumannii_isolate 14 (antibiotic-resistant); type: cell-based, Acinetobacter baumannii; conditions: isolate 14 (antibiotic-resistant)
Description: as §1, §2

[19] = system: Acinetobacter baumannii_isolate16 (antibiotic-resistant); type: cell-based, Acinetobacter baumannii; conditions: isolate16 (antibiotic-resistant)
Description: as §1, §2

[20] = system: Acinetobacter baumannii_isolate 24 (antibiotic-resistant); type: cell-based, Acinetobacter baumannii; conditions: isolate 24 (antibiotic-resistant)
Description: as §1, §2

[21] = system: Acinetobacter baumannii_isolate 6 (antibiotic-resistant); type: cell-based, Acinetobacter baumannii; conditions: isolate 6 (antibiotic-resistant)
Description: as §1, §2

[22] = system: Acinetobacter baumannii_isolate 8 (antibiotic-resistant); type: cell-based, Acinetobacter baumannii; conditions: isolate 8 (antibiotic-resistant)
Description: as §1, §2

[23] = system: Acinetobacter baumannii_isolate 19 (antibiotic-resistant); type: cell-based, Acinetobacter baumannii; conditions: isolate 19 (antibiotic-resistant)
Description: as §1, §2

[24] = system: Acinetobacter baumannii_isolate 25 (antibiotic-resistant); type: cell-based, Acinetobacter baumannii; conditions: isolate 25 (antibiotic-resistant)
Description: as §1, §2

[25] = system: Acinetobacter baumannii_isolate 22 (antibiotic-resistant); type: cell-based, Acinetobacter baumannii; conditions: isolate 22 (antibiotic-resistant)
Description: as §1, §2

[26] = system: Acinetobacter baumannii_isolate21 (antibiotic-resistant); type: cell-based, Acinetobacter baumannii; conditions: isolate21 (antibiotic-resistant)
Description: as §1, §2

[27] = system: Acinetobacter baumannii KCTC 1017; type: cell-based; conditions: for MIC: KCTC 1017
Description: as §1, §2

[28] = system: Bacillus cereus KCTC 2508; type: cell-based
Description: as §1, §2

[29] = system: Staphylococcus aureus ATCC 25923; type: cell-based; conditions: for MIC: ATCC 25923
Description: as §1, §2

[30] = system: Escherichia coli ATCC 25922; type: cell-based
Description: as §1, §2

[31] = system: Pseudomonas aeruginosa ATCC 27853; type: cell-based
Description: as §1, §2

[32] = system: Listeria monocytogenes KCTC 3710; type: cell-based
Description: as §1, §2

| MIC [1] [µM] | MIC [2] [µM] | MIC [3] [µM] | MIC [4] [µM] | MIC [5] [µM] | MIC [6] [µM] | MIC [7] [µM] | MIC [8] [µM] | MIC [9] [µM] | MIC [10] [µM] | MIC [11] [µM] | MIC [12] [µM] | MIC [13] [µM] | MIC [14] [µM] | MIC [15] [µM] | MIC [16] [µM] | MIC [17] [µM] | MIC [18] [µM] | MIC [19] [µM] | MIC [20] [µM] | Compound | further results |
| --- | --- | --- | --- | --- | --- | --- | --- | --- | --- | --- | --- | --- | --- | --- | --- | --- | --- | --- | --- | --- | --- |
| 2 (≈ 5.1 µg/mL) | 2 (≈ 5.1 µg/mL) | 2 (≈ 5.1 µg/mL) | 1 (≈ 2.55 µg/mL) | 1 (≈ 2.55 µg/mL) | 2 (≈ 5.1 µg/mL) | 1 (≈ 2.55 µg/mL) | 2 (≈ 5.1 µg/mL) | 2 (≈ 5.1 µg/mL) | 2 (≈ 5.1 µg/mL) | 2 (≈ 5.1 µg/mL) | 2 (≈ 5.1 µg/mL) | 2 (≈ 5.1 µg/mL) | 2 (≈ 5.1 µg/mL) | 2 (≈ 5.1 µg/mL) | 2 (≈ 5.1 µg/mL) | 2 (≈ 5.1 µg/mL) | 2 (≈ 5.1 µg/mL) | 2 (≈ 5.1 µg/mL) | 2 (≈ 5.1 µg/mL) | CC[C@H](C)[C@H](NC(=O)[C@H](C)NC(=O)[C@H](CC(C)C)NC(=O)[C@@H]1CCCN1C(=O)[C@@H](NC(=O)[C@H](CC(C)C)NC(=O)[C@H](CCC(N)=O)NC(=O)[C@H](Cc1c[nH]c2ccccc12)NC(=O)[C@H](C)NC(=O)[C@H](CCCNC(=N)N)NC(=O)[C@@H](N)CCCCN)C(C)C)C(=O)N[C@@H](CCCCN)C(=O)N[C@H](C(=O)N[C@@H](Cc1ccc(O)cc1)C(=O)N[C@@H](CCCNC(=N)N)C(=O)N[C@@H](C)C(=O)N[C@@H](Cc1c[nH]c2ccccc12)C(=O)N[C@@H](CCCCN)C(=O)N[C@@H](CCCNC(=N)N)C(=O)N[C@@H](CCCNC(=N)N)C(N)=O)[C@@H](C)CC [dCATH-A1] (H-KRAWQLVPLAIKIYRAWKRR-NH2; N-terminus assumed) | MIC [21]: 2 µM (≈ 5.1 µg/mL); MIC [22]: 2 µM (≈ 5.1 µg/mL); MIC [23]: 1 µM (≈ 2.55 µg/mL); MIC [24]: 2 µM (≈ 5.1 µg/mL); MIC [25]: 2 µM (≈ 5.1 µg/mL); MIC [26]: 2 µM (≈ 5.1 µg/mL); MIC [27]: 2 µM (≈ 5.1 µg/mL); MIC [28]: 2 µM (≈ 5.1 µg/mL); MIC [29]: 2 µM (≈ 5.1 µg/mL); MIC [30]: 2 µM (≈ 5.1 µg/mL); MIC [31]: 4 µM (≈ 10.2 µg/mL); MIC [32]: 2 µM (≈ 5.1 µg/mL) |
| 1 (≈ 2.19 µg/mL) | 1 (≈ 2.19 µg/mL) | 1 (≈ 2.19 µg/mL) | 1 (≈ 2.19 µg/mL) | 1 (≈ 2.19 µg/mL) | 0.5 (≈ 1.09 µg/mL) | 1 (≈ 2.19 µg/mL) | 1 (≈ 2.19 µg/mL) | 1 (≈ 2.19 µg/mL) | 1 (≈ 2.19 µg/mL) | 1 (≈ 2.19 µg/mL) | 1 (≈ 2.19 µg/mL) | 1 (≈ 2.19 µg/mL) | 1 (≈ 2.19 µg/mL) | 1 (≈ 2.19 µg/mL) | 1 (≈ 2.19 µg/mL) | 1 (≈ 2.19 µg/mL) | 1 (≈ 2.19 µg/mL) | 1 (≈ 2.19 µg/mL) | 1 (≈ 2.19 µg/mL) | CC[C@H](C)[C@H](NC(=O)[C@H](C)NC(=O)[C@H](CCCCN)NC(=O)[C@H](CCCCN)NC(=O)[C@@H](NC(=O)[C@H](CC(C)C)NC(=O)[C@H](CCC(N)=O)NC(=O)[C@H](C)NC(=O)[C@H](C)NC(=O)[C@H](CCCNC(=N)N)NC(=O)[C@@H](N)CCCCN)C(C)C)C(=O)N[C@@H](CCCCN)C(=O)N[C@@H](CCCCN)C(=O)N[C@@H](Cc1ccc(O)cc1)C(=O)N[C@@H](CCCNC(=N)N)C(=O)N[C@@H](C)C(=O)N[C@@H](Cc1c[nH]c2ccccc12)C(=O)N[C@@H](CCCCN)C(N)=O [dCATH-A7, KRAAQLVKKAIKKYRAWK] (H-KRAAQLVKKAIKKYRAWK-NH2; N-terminus assumed) | MIC [21]: 1 µM (≈ 2.19 µg/mL); MIC [22]: 1 µM (≈ 2.19 µg/mL); MIC [23]: 1 µM (≈ 2.19 µg/mL); MIC [24]: 1 µM (≈ 2.19 µg/mL); MIC [25]: 1 µM (≈ 2.19 µg/mL); MIC [26]: 1 µM (≈ 2.19 µg/mL); MIC [27]: 1 µM (≈ 2.19 µg/mL); antimicrobial activity compared to the control peptide dCATH ([27]; against Acinetobacter baumannii): significantly superior antimicrobial activity; MIC [28]: 1 µM (≈ 2.19 µg/mL); MIC [29]: 0.5 µM (≈ 1.09 µg/mL); antimicrobial activity compared to the control peptide dCATH ([29]; against Staphylococcus aureus strains): notably superior activity; MIC [30]: 4 µM (≈ 8.74 µg/mL); MIC [31]: 8 µM (≈ 17.5 µg/mL); MIC [32]: 4 µM (≈ 8.74 µg/mL) |
| 1 (≈ 2.44 µg/mL) | 1 (≈ 2.44 µg/mL) | 2 (≈ 4.87 µg/mL) | 1 (≈ 2.44 µg/mL) | 1 (≈ 2.44 µg/mL) | 1 (≈ 2.44 µg/mL) | 1 (≈ 2.44 µg/mL) | 1 (≈ 2.44 µg/mL) | 2 (≈ 4.87 µg/mL) | 1 (≈ 2.44 µg/mL) | 1 (≈ 2.44 µg/mL) | 1 (≈ 2.44 µg/mL) | 1 (≈ 2.44 µg/mL) | 1 (≈ 2.44 µg/mL) | 1 (≈ 2.44 µg/mL) | 1 (≈ 2.44 µg/mL) | 1 (≈ 2.44 µg/mL) | 2 (≈ 4.87 µg/mL) | 1 (≈ 2.44 µg/mL) | 1 (≈ 2.44 µg/mL) | CC[C@H](C)[C@H](NC(=O)[C@H](C)NC(=O)[C@H](CC(C)C)NC(=O)[C@@H]1CCCN1C(=O)[C@@H](NC(=O)[C@H](CC(C)C)NC(=O)[C@H](CCC(N)=O)NC(=O)[C@H](C)NC(=O)[C@H](C)NC(=O)[C@H](CCCNC(=N)N)NC(=O)[C@@H](N)CCCCN)C(C)C)C(=O)N[C@@H](CCCCN)C(=O)N[C@H](C(=O)N[C@@H](Cc1ccc(O)cc1)C(=O)N[C@@H](CCCNC(=N)N)C(=O)N[C@@H](C)C(=O)N[C@@H](Cc1c[nH]c2ccccc12)C(=O)N[C@@H](CCCCN)C(=O)N[C@@H](CCCNC(=N)N)C(=O)N[C@@H](CCCNC(=N)N)C(N)=O)[C@@H](C)CC [dCATH-A3] (H-KRAAQLVPLAIKIYRAWKRR-NH2; N-terminus assumed) | MIC [21]: 2 µM (≈ 4.87 µg/mL); MIC [22]: 1 µM (≈ 2.44 µg/mL); MIC [23]: 1 µM (≈ 2.44 µg/mL); MIC [24]: 1 µM (≈ 2.44 µg/mL); MIC [25]: 1 µM (≈ 2.44 µg/mL); MIC [26]: 4 µM (≈ 9.75 µg/mL); MIC [27]: 1 µM (≈ 2.44 µg/mL); MIC [28]: 2 µM (≈ 4.87 µg/mL); MIC [29]: 2 µM (≈ 4.87 µg/mL); MIC [30]: 2 µM (≈ 4.87 µg/mL); MIC [31]: 2 µM (≈ 4.87 µg/mL); MIC [32]: 2 µM (≈ 4.87 µg/mL) |
